Data: US6949558B2, “Enhancement of taxane-based chemotherapy by a CDK1 antagonist” (Yale University, priority 2001, dated 2005)

What was measured:
Type in all cases: cell-based, human
[1] = system: p34^cdc2 kinase activity (MPM-2 epitope) in MCF-7 cells; assay: MPM-2 mitotic phosphoepitope expression (p34^cdc2 kinase activity) in MCF-7 cells
Procedure: MPM-2 Mitotic Phosphoepitope Expression: For detection of mitotic phosphoproteins (D. D. Vandre et al. (1989) J. Cell Sci. 94: 245-58), MCF-7 cells (1-2×10^5 cells/60 mm dish) were treated with taxol (2 μM), adriamycin (100 nM), 50 or 300 J/m^2 UVB irradiation and cultured for 0, 8, 16, 24 or 36 h at 37° C. Cells were fixed in 70% ethanol, labeled with MPM-2 antibody (6 μg/ml) followed by addition of goat anti-mouse FITC (Boehringer Mannheim) for 1 h at 22° C. in the presence of 5 μg/ml propidium iodide (PI) containing 50 μg/ml RNase A. Samples were analyzed on a FACScan (Becton Dickinson, Mountain View, Calif.), using CellQuest software.
MPM-2 Mitotic Phosphoepitope Expression: For detection of mitotic phosphoproteins (D. D. Vandre et al. (1989) J. Cell Sci. 94: 245-258), MCF-7 cells (1-2×10^5 cells/60 mm dish) were treated with taxol (0.2 μM), or vincristine (100 nM) for increasing time intervals (8-36 h) at 37° C. Cells were fixed in 70% ethanol, labeled with MPM-2 antibody (6 μg/ml; Upstate Biotechnology, Lake Placid, N.Y.) followed by addition of goat anti-mouse FITC (Boehringer Mannheim) for 1 h at 22° C. in the presence of 5 μg/ml propidium iodide containing 50 μg/ml RNAse A. Samples were analyzed on a FACScan (Becton Dickinson, Mountain View, Calif.), using CellQuest software. Data are expressed as %MPM-2 positive cells in the entire population.

[2] = system: survivin expression in MCF-7 cells; assay: Survivin expression by Western blotting in MCF-7 cells; conditions: taxol 2 μM (FIG. 19A)
[3] = system: survivin RNA in HeLa cells; assay: Northern hybridization of survivin RNA in HeLa cells; conditions: presence or absence of taxol

For `CC(=O)O[C@H]1C(=O)[C@@]2(C)[C@H]([C@H](OC(=O)c3ccccc3)[C@]3(O)C[C@H](OC(=O)[C@H](O)[C@@H](NC(=O)c4ccccc4)c4ccccc4)C(C)=C1C3(C)C)[C@]1(OC(C)=O)CO[C@@H]1C[C@@H]2O` [taxol, Paclitaxel], the MPM-2 expression ([1]; taxol 2 μM (Example 7)) was “elevated MPM-2 expression”, the “p34^cdc2 kinase activity (MPM-2 phosphoepitope expression)” value ([1]; taxol 0.2-2 μM (Example 8)) was “elevated p34^cdc2 kinase activity” and the “increased expression of survivin” value [2] was 3-4 fold. The “survivin RNA levels” value [3] was “no significant changes in survivin RNA levels”.
